{
  "source": "patent US20110152078A1",
  "about": "“Pesticidal Compound Mixtures” (BAYER CROPSCIENCE AG, priority 2009, published 2011)",
  "format_in_all_cases": "in vivo",
  "key": {"[1]": {"tested_on": "green peach aphid (Myzus persicae)", "assay": "Myzus persicae test (Example A), spray on infested cabbage leaves", "details": "single compound", "procedure": "(§1) To produce a suitable preparation of active compound, 1 part by weight of active compound is mixed with the stated amount of solvent and emulsifier, and the concentrate is diluted with emulsifier-containing water to the desired concentration.\n(§2) Cabbage leaves (Brassica oleracea) which are heavily infested by the green peach aphid (Myzus persicae) are treated by being sprayed with the preparation of the active compound at the desired concentration.\n(§3) After the specified period of time, the mortality in % is determined. 100% means that all the aphids have been killed; 0% means that none of the aphids have been killed."}, "[2]": {"tested_on": "larvae of the fall army worm (Spodoptera frugiperda)", "assay": "Spodoptera frugiperda test (Example C), sprayed cabbage leaves", "details": "single compound", "procedure": "as §1\nCabbage leaves (Brassica oleracea) are treated by being sprayed with the preparation of the active compound at the desired concentration and are infested with larvae of the fall army worm (Spodoptera frugiperda) as long as the leaves are still moist.\n(§4) After the specified period of time, the mortality in % is determined. 100% means that all the caterpillars have been killed; 0% means that none of the caterpillars have been killed. According to the present application in this test e.g. the following combinations show a synergistic effect in comparison to the single compounds: […]"}, "[3]": {"tested_on": "green peach aphid (Myzus persicae)", "assay": "Myzus persicae test (Example E), spray on infested cabbage leaves", "details": "single compound", "procedure": "as §1, §2, §3"}, "[4]": {"tested_on": "cotton aphid (Aphis gossypii)", "assay": "Aphis gossypii test (Example D), spray on infested cotton leaves", "details": "single compound", "procedure": "Solvent: 7 parts by weight of dimethylformamide Emulsifier: 2 parts by weight of alkylaryl polyglycolether\nas §1\nCotton leaves (Gossypium hirsutum) which are heavily infested by the cotton aphid (Aphis gossypii) are treated by being sprayed with the preparation of the active compound at the desired concentration.\nas §3"}, "[5]": {"tested_on": "larvae of the mustard beetle (Phaedon cochleariae)", "assay": "Phaedon cochleariae larvae test (Example B), sprayed cabbage leaves", "details": "144 h, single compound, after 6 d", "procedure": "as §1\nCabbage leaves (Brassica oleracea) are treated by being sprayed with the preparation of the active compound at the desired concentration and are infested with larvae of the mustard beetle (Phaedon cochleariae) as long as the leaves are still moist.\nas §4, with “beetle larvae” for “caterpillars”"}, "[6]": {"details": "Myzus persicae, 144 h, 500 g/ha, after 6 d"}},
  "data": [
    {"smiles": "Cn1cc(C(=O)Nc2ccc(F)cc2-c2ccc(Cl)c(Cl)c2)c(C(F)F)n1", "note": "[Bixafen, bixafen]", "values": [
      {"measurement": "Mortality in % after 6 d", "setting": "[1]; 500 g/ha", "result": 0, "unit": "%"},
      {"measurement": "Mortality in % after 6 d", "setting": "[2]; 500 g/ha", "result": 17, "unit": "%"}
    ]},
    {"smiles": "CSC1=N[C@@](C)(c2ccccc2)C(=O)N1Nc1ccccc1", "note": "[Fenamidone, fenamidone]", "values": [
      {"measurement": "mortality at 200 g/ha", "setting": "[3]; Myzus persicae, 144 h, 200 g/ha, after 6 d", "result": 0, "unit": "%"},
      {"measurement": "mortality at 200 g/ha", "setting": "[4]; Aphis gossypii, 144 h, 200 g/ha, after 6 d", "result": 0, "unit": "%"}
    ]},
    {"smiles": "O=C(NCCc1ncc(C(F)(F)F)cc1Cl)c1ccccc1C(F)(F)F", "note": "[Fluopyram, fluopyram]", "values": [
      {"measurement": "mortality at 500 g/ha", "setting": "[5]; 500 g/ha", "result": 0, "unit": "%"},
      {"measurement": "mortality at 500 g/ha", "setting": "[1]; [6]", "result": 0, "unit": "%"}
    ]},
    {"smiles": "CO/N=C(/C1=NOCCO1)c1ccccc1Oc1ncnc(Oc2ccccc2Cl)c1F", "note": "[Fluoxastrobin, fluoxastrobin]", "values": [
      {"measurement": "mortality at 500 g/ha", "setting": "[1]; [6]", "result": 0, "unit": "%"}
    ]},
    {"smiles": "CNC(=O)/C(=N/OC)c1ccccc1Oc1ccccc1", "note": "[Metominostrobin, metominostrobin]", "values": [
      {"measurement": "mortality at 500 g/ha", "setting": "[1]; [6]", "result": 0, "unit": "%"}
    ]},
    {"smiles": "Cc1nn(C)c(F)c1C(=O)Nc1ccccc1C(C)CC(C)C", "note": "(stereo not drawn) [Penflufen, penflufen]", "values": [
      {"measurement": "Mortality in % after 6 d", "setting": "[3]; 200 g/ha", "result": 0, "unit": "%"},
      {"measurement": "Mortality in % after 6 d", "setting": "[4]; 200 g/ha", "result": 0, "unit": "%"}
    ]},
    {"smiles": "COC(=O)N(OC)c1ccccc1COc1ccn(-c2ccc(Cl)cc2)n1", "note": "[Pyraclostrobin, pyraclostrobin]", "values": [
      {"measurement": "mortality at 500 g/ha", "setting": "[1]; [6]", "result": 0, "unit": "%"}
    ]},
    {"smiles": "CC1(C)[C@H](C=C(Cl)Cl)[C@H]1C(=O)OCc1c(F)c(F)cc(F)c1F", "note": "[Transfluthrin]", "values": [
      {"measurement": "mortality at 20 g/ha", "setting": "[5]; 20 g/ha", "result": 0, "unit": "%"},
      {"measurement": "mortality at 10 g/ha", "setting": "[3]; Myzus persicae, 144 h, 10 g/ha, after 6 d", "result": 0, "unit": "%"},
      {"measurement": "mortality at 20 g/ha", "setting": "[1]; Myzus persicae, 144 h, 20 g/ha, after 6 d", "result": 70, "unit": "%"},
      {"measurement": "mortality at 100 g/ha", "setting": "[1]; Myzus persicae, 144 h, 100 g/ha, after 6 d", "result": 80, "unit": "%"},
      {"measurement": "mortality at 4 g/ha", "setting": "[2]; Spodoptera frugiperda, 144 h, 4 g/ha, after 6 d", "result": 50, "unit": "%"},
      {"measurement": "mortality at 10 g/ha", "setting": "[4]; Aphis gossypii, 144 h, 10 g/ha, after 6 d", "result": 5, "unit": "%"}
    ]},
    {"smiles": "CON=C(C(=O)OC)c1ccccc1CON=C(C)c1cccc(C(F)(F)F)c1", "note": "[Trifloxystrobin, trifloxystrobin]", "values": [
      {"measurement": "mortality at 500 g/ha", "setting": "[1]; [6]", "result": 0, "unit": "%"}
    ]}
  ]
}
